Inhibition and IC50 data for 12 compounds are collected here from ChEMBL document CHEMBL1145220, “Design and synthesis of highly active Alzheimer's beta-secretase (BACE1) inhibitors, KMI-420 and KMI-429, with enhanced chemical stability” (Bioorg Med Chem Lett, 2005).

Assay [1] addresses T1, Beta-secretase 1 (Homo sapiens, UniProt P56817). Briefly: Inhibitory activity against beta-secretase 1 (BACE1) at 2 uM.
Assay [2] addresses T1, Beta-secretase 1. Briefly: Inhibitory activity against beta-secretase 1 (BACE1) at 0.2 uM.
The target in assay [3] is T1, Beta-secretase 1. Briefly: Inhibitory activity against beta-secretase 1 (BACE1).

Numbered stars: 1 amine (or outer) side, 2 acyl side, 3 side chain; on linkers, the order of the positions; unused ones are H or OH. Square brackets hold non-standard residues; d marks the D form. Peptide text beside a SMILES is read from it. * marks the point of attachment. β3hPhe(2R-OH) = O=C([C@H](O)[C@H](Cc1ccccc1)N[*:1])[*:2]; Tetrazole5carbonyl = O=C(c1nn[nH]n1)*; Oxalyl = O=C(C(=O)[*:2])[*:1]; Dap = NC[C@H](N)C(=O)O

T1 sequence (P56817 whole entry): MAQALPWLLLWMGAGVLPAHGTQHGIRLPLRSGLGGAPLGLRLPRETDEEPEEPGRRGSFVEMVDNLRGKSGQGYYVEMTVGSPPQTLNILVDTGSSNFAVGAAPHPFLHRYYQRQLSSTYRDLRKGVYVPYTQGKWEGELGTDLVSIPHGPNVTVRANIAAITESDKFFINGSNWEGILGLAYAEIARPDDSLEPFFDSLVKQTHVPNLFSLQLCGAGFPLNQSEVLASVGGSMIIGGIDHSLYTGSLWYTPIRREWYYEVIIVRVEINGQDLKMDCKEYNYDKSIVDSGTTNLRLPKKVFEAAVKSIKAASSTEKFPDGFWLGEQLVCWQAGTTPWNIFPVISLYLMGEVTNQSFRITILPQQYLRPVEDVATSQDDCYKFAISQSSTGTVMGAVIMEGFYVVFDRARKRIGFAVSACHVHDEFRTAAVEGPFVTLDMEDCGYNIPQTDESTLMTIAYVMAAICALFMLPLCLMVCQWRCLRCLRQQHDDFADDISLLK

`CC(C)C[C@H](NC(=O)[C@@H](NC(=O)[C@@H](N)CNC(=O)c1nn[nH]n1)C(C)C)C(=O)N[C@@H](Cc1ccccc1)[C@@H](O)C(=O)N[C@@H](CC(=O)O)C(=O)N[C@@H](C)C(=O)N[C@@H](CCC(=O)O)C(=O)O` (H-[Dap](Tetrazole5carbonyl)VL[β3hPhe(2R-OH)]DAE-OH): the figures for the inhibition on Beta-secretase 1 [1] and on Beta-secretase 1 [2] were 93% and 73.1%, respectively.
For `CC(C)C[C@H](NC(=O)[C@@H](NC(=O)[C@@H](N)CNC(=O)C(=O)O)C(C)C)C(=O)N[C@@H](Cc1ccccc1)[C@@H](O)C(=O)Nc1cc(C(=O)O)cc(C(=O)O)c1`, the inhibition (as a rule, the percentage by which the read-out fell short of the control) was 99.8% against Beta-secretase 1 [1] and 96.7% on Beta-secretase 1 [2]. Moreover, the IC50 (commonly the midpoint of a concentration-inhibition curve) against Beta-secretase 1 [3] came to 4.7 nM.
`CC(C)C[C@H](NC(=O)[C@@H](NC(=O)[C@@H](N)CNC(=O)c1nn[nH]n1)C(C)C)C(=O)N[C@@H](Cc1ccccc1)[C@@H](O)C(=O)Nc1cc(C(=O)O)cc(C(=O)O)c1`: the inhibition against Beta-secretase 1 [1] was 100%; against Beta-secretase 1 [2], 98.1%.
On the same counts, the results for `CC(C)C[C@H](NC(=O)[C@@H](NC(=O)[C@@H](N)CNC(=O)c1nn[nH]n1)C(C)C)C(=O)N[C@@H](Cc1ccccc1)[C@@H](O)C(=O)Nc1cccc(C(=O)O)c1` are 99% and 87.1%.
`CC(C)C[C@H](NC(=O)[C@@H](NC(=O)[C@H](CN)NC(=O)c1nn[nH]n1)C(C)C)C(=O)N[C@@H](Cc1ccccc1)[C@@H](O)C(=O)Nc1cccc(C(=O)O)c1` had an inhibition at Beta-secretase 1 [1] of 0%.
As for `CC(C)C[C@H](NC(=O)[C@@H](NC(=O)[C@@H](N)CNC(=O)C(=O)O)C(C)C)C(=O)N[C@@H](Cc1ccccc1)[C@@H](O)C(=O)Nc1cccc(C(=O)O)c1`, the inhibition on Beta-secretase 1 [1] was 98.4%; on Beta-secretase 1 [2], 85.5%. The IC50 against Beta-secretase 1 [3] turned out to be 16 nM.
In turn, `CC(C)C[C@H](NC(=O)[C@@H](NC(=O)[C@@H](N)CNC(=O)c1nnn[nH]1)C(C)C)C(=O)N[C@@H](Cc1ccccc1)[C@@H](O)C(=O)Nc1cccc(C(=O)O)c1` yielded an IC50 against Beta-secretase 1 [3] of 8.2 nM.
Compound `CC(C)C[C@H](NC(=O)[C@@H](NC(=O)[C@H](CN)NC(=O)C(=O)O)C(C)C)C(=O)N[C@@H](Cc1ccccc1)[C@@H](O)C(=O)N[C@@H](CC(=O)O)C(=O)N[C@@H](C)C(=O)N[C@@H](CCC(=O)O)C(=O)O` (Oxalyl-[Dap]VL[β3hPhe(2R-OH)]DAE-OH) had an inhibition on Beta-secretase 1 [1] of 75.2%.
Turning to `CC(C)C[C@H](NC(=O)[C@@H](NC(=O)[C@@H](N)CNC(=O)C(=O)O)C(C)C)C(=O)N[C@@H](Cc1ccccc1)[C@@H](O)C(=O)N[C@@H](CC(=O)O)C(=O)N[C@@H](C)C(=O)N[C@@H](CCC(=O)O)C(=O)O` (H-[Dap](Oxalyl)VL[β3hPhe(2R-OH)]DAE-OH), the inhibition on Beta-secretase 1 [1] was 96.7%; at Beta-secretase 1 [2], 57.6%. Besides, on Beta-secretase 1 [3], the IC50 turned out to be 84 nM.
Compound `CC(C)C[C@H](NC(=O)[C@@H](NC(=O)[C@H](CN)NC(=O)c1nn[nH]n1)C(C)C)C(=O)N[C@@H](Cc1ccccc1)[C@@H](O)C(=O)N[C@@H](CC(=O)O)C(=O)N[C@@H](C)C(=O)N[C@@H](CCC(=O)O)C(=O)O` (Tetrazole5carbonyl-[Dap]VL[β3hPhe(2R-OH)]DAE-OH) yielded an inhibition at Beta-secretase 1 [1] of 23.2%.
At Beta-secretase 1 [3], `CC(C)C[C@H](NC(=O)[C@@H](NC(=O)[C@@H](N)CNC(=O)c1nnn[nH]1)C(C)C)C(=O)N[C@@H](Cc1ccccc1)[C@@H](O)C(=O)Nc1cc(C(=O)O)cc(C(=O)O)c1` showed an IC50 of 3.9 nM.
On to `CC(C)C[C@H](NC(=O)[C@@H](NC(=O)[C@H](CN)NC(=O)C(=O)O)C(C)C)C(=O)N[C@@H](Cc1ccccc1)[C@@H](O)C(=O)Nc1cccc(C(=O)O)c1`, for which the figures for the inhibition against Beta-secretase 1 [1] and on Beta-secretase 1 [2] were 87.9% and 58.6%, respectively.
